From patent US6809109B2, “2, 4-disubstituted-pyridine N-oxides useful as HIV reverse transcriptase inhibitors” (Bristol-Myers Squibb Company, priority 2002, dated 2004)
Converted amounts (≈) assume the structure as drawn.

Tested on: HIV-1 (RF)
Test: HIV RNA assay, microplate based compound evaluation in HIV-1 infected MT-2 cells
Type: cell-based
Conditions: Human immunodeficiency virus 1, MT2, 72 h; HIV-1 (RF) infected MT-2 cells, 3 days of culture; value used to standardize the virus inoculum; read-out: IC90 (concentration of compound required to reduce the HIV RNA level by 90%)
Experimental: Plasmid pDAB 72 containing both gag and pol sequences of BH10 (bp 113-1816) cloned into PTZ 19R was prepared according to Erickson-Viitanen et al. AIDS Research and Human Retroviruses 1989, 5, 577. The plasmid was linearized with Bam HI prior to the generation of in vitro RNA transcripts using the Riboprobe Gemini system II kit (Promega) with T7 RNA polymerase. Synthesized RNA was purified by treatment with RNase free DNAse (Promega), phenol-chloroform extraction, and ethanol precipitation. RNA transcripts were dissolved in water, and stored at −70° C. The concentration of RNA was determined from the A260.
Biotinylated capture probes were purified by HPLC after synthesis on an Applied Biosystems (Foster City, Calif.) DNA synthesizer by addition of biotin to the 5′ terminal end of the oligonucleotide, using the biotin-phosphoramidite reagent of Cocuzza, Tet. Lett. 1989, 30, 6287. […]
MT-2 and MT-4 cells were maintained in RPMI 1640 supplemented with 5% fetal calf serum (FCS) for MT-2 cells or 10% FCS for MT-4 cells, 2 mM L-glutamine and 50 μg/mL gentamycin, all from Gibco. […] Infectious titers of HIV-1(RF) stocks were 1-3×10^7 PFU (plaque forming units)/mL as measured by plaque assay on MT-2 cells (see below). […]

IC90: 0.2 µg/mL (≈ 0.947 µM)
Compound: Nc1ccn([C@H]2CC[C@@H](CO)O2)c(=O)n1 [ddC, dideoxycytidine]
